Experimental data taken from patent US20140213453A1, “PLANT GROWTH REGULATION” (SYNGENTA PARTICIPATIONS AG, priority 2011, published 2014).

Legend:
Format in all cases: in vivo
summer barley (Pasadena) = experiment: Glasshouse trial, lodging after leaf spray at growth stage 30, summer barley; conditions: for % lodging 30 DAA: summer barley, untreated check 32.2
Excerpt: (§1) A glasshouse trial was setup to compare growth regulation effects of trinexapac-ethyl, cis-jasmone, and mixtures of trinexapac-ethyl and cis-jasmone at various rates, on summer barley (Pasadena) and winter rye (Rekrut). Each treatment was applied as a spray to the leaves of the plant at plant growth stage 30 (start of stem elongation). Assessments of lodging were made 30 days after application; the results are expressed as percentage lodging in Table 2. [table]

winter rye (Rekrut) = experiment: Glasshouse trial, lodging after leaf spray at growth stage 30, winter rye; conditions: untreated check 18.9
Excerpt: as §1

barley = experiment: Trial in Switzerland, growth regulation (plant height) on barley; conditions: rates g AI/ha: TXP (Moddus EC250) 75, CJN (EC300) 50, TXP + CJN 75 + 50, untreated check 89
Excerpt: A trial was setup in Switzerland to compare growth regulation effects of trinexapac-ethyl, cis-jasmone, and mixtures of trinexapac-ethyl and cis-jasmone on barley. Assessments of plant height were made 21 days after application.

[1] = tested on: Poa annua golf course fairway; experiment: Turf study, clipping weights on golf course fairway; conditions: for Clipping weight (grams) per plot, 24-June / Clipping weight (grams) per plot, 10-June / Clipping weight (grams) per plot, 17-June / Clipping weight (grams) per plot, 3-July / Clipping weight (grams) per plot, 4-June: 3 applications on a 4 week schedule; for Clipping weight (grams) per plot, 24-June / Clipping weight (grams) per plot, 10-June / Clipping weight (grams) per plot, 17-June / Clipping weight (grams) per plot, 3-July / Clipping weight (grams) per plot, 4-June / Clipping weight (grams) per plot, Cumulative Clipping total: g ai/ha: TXP 96, CJN 50, TXP + cis-jasmone 72 + 50; for Clipping weight (grams) per plot, 24-June: check 11.95; for Clipping weight (grams) per plot, 10-June: check 12.1; for Clipping weight (grams) per plot, 17-June: check 13.8; for Clipping weight (grams) per plot, 3-July: check 15.7; for Clipping weight (grams) per plot, 4-June: check 21.5; for Clipping weight (grams) per plot, Cumulative Clipping total: total over all rating dates (not all shown), check 194
Description: A study was conducted on Poa annua golf course […], to compare the effects of treatment with cis-jasmone alone, trinexapac-ethyl alone, and combinations of cis-jasmone and trinexapac-ethyl. Clipping weights were measured at regular intervals.

[2] = Treatment 2: TXP (Moddus) 200 g AI/ha
[3] = Treatment 3: TXP (Moddus) 100 g AI/ha

Compound	% lodging 30 DAA (summer barley (Pasadena); Treatment 4: CJN 300 g AI/ha) [%]	% lodging 30 DAA (summer barley (Pasadena); Treatment 5: CJN 150 g AI/ha) [%]	effect on lodging, in words (summer barley (Pasadena); text summary for summer barley and winter rye, cis-jasmone treatments 4 and 5 compared to treatment 1 (untreated))	% lodging 30 DAA (winter rye (Rekrut); Treatment 4: CJN 300 g AI/ha) [%]	% lodging 30 DAA (winter rye (Rekrut); Treatment 5: CJN 150 g AI/ha) [%]	Plant height (cm) 21DAA (barley) [cm]	Clipping weight (grams) per plot, 24-June [1]	Clipping weight (grams) per plot, 10-June [1]	Clipping weight (grams) per plot, 17-June [1]	Clipping weight (grams) per plot, 3-July [1] [a grams]	Clipping weight (grams) per plot, 4-June [1]	effect on clipping weights, in words ([1]; Poa annua turf, compared to the untreated control)	Clipping weight (grams) per plot, Cumulative Clipping total [1]	% lodging 30 DAA (summer barley (Pasadena); [2]) [%]	% lodging 30 DAA (summer barley (Pasadena); [3]) [%]	% lodging 30 DAA (winter rye (Rekrut); [2]) [%]	% lodging 30 DAA (winter rye (Rekrut); [3]) [%]
CC/C=C\CC1=C(C)CCC1=O [CJN, cis-jasmone]	60.0	70.0	significantly increases lodging	23.3	30.0	90	14.7 a grams	12.8 a grams	17.69 a grams	19.2	21.7 a grams	increased clipping weights	213.5 a grams	–	–	–	–
CCOC(=O)C1CC(=O)C(=C(O)C2CC2)C(=O)C1 (stereo not drawn) [TXP, trinexapac-ethyl, reference compound]	–	–	–	–	–	90	10.71 grams	9.27 d grams	11.35 grams	18.2	18.1 grams	–	173 def grams	6.7	10.0	0.0	6.7
